Assay results from US11911397B2, “Anordrin compositions and methods for treating diseases” (Zhejiang Jiachi Development Pharmaceuticals LTD, priority 2014, dated 2024).

Tests used:
[1] = system: BRCA1, ApoD, COX7a mRNA in MCF-7 cells; assay: RT-qPCR of genes regulated by the estrogen classic pathway in MCF-7 cells; type: cell-based; details: for expression of ApoD: FIG. 13B
[2] = system: 8S and 4S estrogen-binding complexes in uterine cytosol; details: cited from earlier work
[3] = system: Bcl-2 expression in MCF-7 cells; assay: Bcl-2 expression in MCF-7 cells (western blotting, RT-qPCR); type: cell-based; details: for increase of Bcl-2 mRNA transcription: 6 μM dinordrin, RT-qPCR
normal mice = normal mice treated with tamoxifen, anordrin or both
[4] = system: endometrial epithelial cells; assay: endometrial epithelial cells in mice (histology); details: for endometrial epithelial cell proliferation: monolayer vs polylayer
Excerpt: Preparation of paraffin sections and HE staining: The tissue of mice was excised by surgery and fixed using 2.5% formaldehyde in 1×PBS.

MDA-MB-231 cells [5] = assay: MDA-MB-231 cell growth, cell counting; type: cell-based; details: 6 μM anordrin
MCF-7 cells [6] = assay: glucose consumption and medium pH of MCF-7 cells; type: cell-based; details: for glucose concentration of media / glucose consumption: 60 hours
[7] = target: T1, ER-α ligand binding domain (GST-ER-α-LBD) (Homo sapiens, UniProt P03372); assay: 3H-E2 competition assay on GST-ER-α-LBD beads; details: for blocking of [H^3-E2] binding to GST-ER-α-LBD on beads: 50 nM, 0.5 nM [H^3-E2], 1 μg GST-ER-α-LBD
T1 construct: made in house; host or cells: E. coli
T1 sequence (P03372 311-547 limits assumed): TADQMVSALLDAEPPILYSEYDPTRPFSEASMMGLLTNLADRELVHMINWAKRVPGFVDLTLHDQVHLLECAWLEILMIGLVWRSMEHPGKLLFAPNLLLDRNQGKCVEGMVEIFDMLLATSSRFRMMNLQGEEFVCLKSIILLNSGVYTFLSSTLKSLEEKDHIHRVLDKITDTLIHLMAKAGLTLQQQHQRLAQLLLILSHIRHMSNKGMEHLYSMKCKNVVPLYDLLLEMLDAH

MDA-MB-231 cells [8] = assay: MDA-MB-231 cell migration (matrixgel / transwell); type: cell-based; details: 6 μM anordrin
Procedure: As anordrin has been reported as an anti-angiogenic agent resulting in inhibition of cell migration and invasion (16), we studied its ability to modulate MDA-MB-231 cell migration using matrixgel. […] After 20 hours migrated cells were stained and quantified using a plate reader at 560 nm.

MCF-7 cells [9] = assay: MCF-7 cell growth, cell counting; type: cell-based
Procedure: To test this hypothesis we induced MCF-7 cells in IL-free medium for two months. Drug sensitivity of cell growth was tested by counting the cell number after 144 h of inoculation (FIG. 13A).

Ishikawa cells = assay: Ishikawa cell proliferation; type: cell-based
MCF-7 cells [10] = assay: 2-NBDG glucose uptake and cellular ATP in MCF-7 cells; type: cell-based
Procedure: Glucose uptake was measured using fluorescently labeled glucose (2-NBDG), and ATP concentrations were measured using an ATP analysis kit.

GPER1 = target: T2, GPER1 (Homo sapiens, UniProt Q99527); assay: 3H-E2 binding to GPER1 fusion protein expressed in HEK-293 cells; details: 100 nM anordrin, 1 nM 3H-E2, HEK-293 lysate
T2 construct: expressed in transfected cells; host or cells: HEK-293
T2 sequence (Q99527 whole entry, species assumed, the tested form may be a part): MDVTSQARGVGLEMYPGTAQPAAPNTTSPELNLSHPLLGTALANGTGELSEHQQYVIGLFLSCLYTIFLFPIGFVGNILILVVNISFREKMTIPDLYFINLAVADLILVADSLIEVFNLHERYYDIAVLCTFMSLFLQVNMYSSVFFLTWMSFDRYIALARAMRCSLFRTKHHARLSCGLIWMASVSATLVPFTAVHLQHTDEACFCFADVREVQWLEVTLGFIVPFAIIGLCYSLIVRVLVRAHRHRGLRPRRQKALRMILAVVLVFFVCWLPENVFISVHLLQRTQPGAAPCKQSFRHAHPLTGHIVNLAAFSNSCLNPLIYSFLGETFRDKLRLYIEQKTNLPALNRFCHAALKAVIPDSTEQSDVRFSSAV
Procedure: (§1) Binding and competition assays: GST and GST-ER-α fusion proteins were expressed in E. coli and purified using glutathione beads. 2 μg/ml GST (40-80 nM) fusion proteins in 1 ml TE buffer was mixed with 1 nM ^3H-E2 at 4° C. for 2 h. Radioactivity on beads was measured using a GM meter. HEK-293 cells were transfected to express GST fusion proteins of ER-β or GPER1. Cells were lysed in 1×TE buffer containing protease inhibitor cocktail (sigma) on ice for 30 min, 80% glycerol was added to reach 20% glycerol. Tubes were centrifuged at 300 g for 5 min and supernatant was collected. Protein concentration was measured by Bio-rad protein concentration assay kit. 100 nM anordrin and 1 nM^3H-E2 was added to 1 ml lysate (5 mg/ml total protein) at 4° C. for 2 h. Radioactivity on beads was measured using GM meter.

db/db mice = assay: blood glucose in db/db mice; type: in vivo
Hec1A cells = assay: Hec1A cell proliferation; type: cell-based
HepG2 cells = assay: HepG2 cell growth; type: cell-based
ER-β = target: T3, ER-β (Homo sapiens, UniProt Q92731); assay: 3H-E2 binding to ER-β fusion protein expressed in HEK-293 cells; details: 100 nM anordrin, 1 nM 3H-E2, HEK-293 lysate
T3 construct: expressed in transfected cells; host or cells: HEK-293
T3 sequence (Q92731 whole entry, species assumed, the tested form may be a part): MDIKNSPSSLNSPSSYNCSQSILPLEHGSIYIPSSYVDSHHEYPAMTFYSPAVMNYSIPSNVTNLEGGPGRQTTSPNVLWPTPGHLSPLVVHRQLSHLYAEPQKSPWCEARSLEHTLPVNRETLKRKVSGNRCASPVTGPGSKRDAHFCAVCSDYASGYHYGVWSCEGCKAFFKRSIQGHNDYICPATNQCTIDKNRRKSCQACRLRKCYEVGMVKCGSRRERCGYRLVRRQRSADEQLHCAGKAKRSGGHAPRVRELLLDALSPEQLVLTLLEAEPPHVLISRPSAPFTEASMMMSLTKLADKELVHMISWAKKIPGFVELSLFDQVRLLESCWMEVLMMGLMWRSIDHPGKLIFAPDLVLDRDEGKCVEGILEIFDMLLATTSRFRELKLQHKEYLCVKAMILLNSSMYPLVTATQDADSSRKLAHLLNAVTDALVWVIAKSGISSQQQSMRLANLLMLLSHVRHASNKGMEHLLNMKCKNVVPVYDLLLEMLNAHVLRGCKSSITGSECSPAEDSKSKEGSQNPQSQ
Procedure: as §1

[11] = system: integrin β1 in MCF-7 cells; assay: integrin β1 cell surface distribution and expression in MCF-7 cells; type: cell-based; details: 6 μM
Procedure: (§2) MCF-7 cells were harvested and lysed in RIPA buffer. 40 μg total protein of cellular lysate was used for Western blotting to determinate the expression level of integrin β1.
(§3) Integrin translocation to the cell surface is regulated by the p130Cas scaffold protein complex to play a fundamental role in cell attachment and migration. Integrin α3β1 has been reported to be involved in MCF-7 cell attachment as well as MDA-MB-231 cell migration (25, 26). […] To verify the hypothesis, we treated MCF-7 and MDA-MB-231 cells with 6 μM anordrin for 16 hours and measured cell surface integrin β1 distribution using a FITC-labeled anti-integrin β1 antibody. […] Taken together, we conclude that anordrin or analog thereof (such as […]) binds to membrane-associated ER to inhibit cell migration and proliferation.
(§4) Transwell and flow cytometry assay: Cells were starved for 48 hours in phenol red free medium containing 5% charcoal-stripped FBS, and then changed into phenol red free medium for an additional 24 hours. Transwell was performed following the Chemicon kit instructions (CAT #ECM551). Briefly, cells were trypsinized, washed using 1×DPBS containing Ca2+ and Mg2+ (Sigma) and resuspensed in serum and phenol red free medium at a cell density of 0.5×10^6 cells/ml. […]

[12] = system: ovariectomized (OVX) mice; assay: ovariectomized (OVX) mice model; type: in vivo; details: for fat deposits in paraffin sections of liver / body mass / total cholesterol (TC) in liver / triglyceride (TG) in liver: OVX mice; for body mass: after 6 weeks, intragastric; for total cholesterol (TC) in liver / triglyceride (TG) in liver: compared to controls
ER-α-36 = target: T4, ER-α-36 (Homo sapiens, UniProt P03372); assay: 3H-E2 binding to ER-α-36 expressed in HEK-293 cells; details: blocking at low, facilitating at higher concentrations
T4 construct: expressed in transfected cells; host or cells: HEK-293
T4 sequence (P03372 1-310 isoform P03372-4): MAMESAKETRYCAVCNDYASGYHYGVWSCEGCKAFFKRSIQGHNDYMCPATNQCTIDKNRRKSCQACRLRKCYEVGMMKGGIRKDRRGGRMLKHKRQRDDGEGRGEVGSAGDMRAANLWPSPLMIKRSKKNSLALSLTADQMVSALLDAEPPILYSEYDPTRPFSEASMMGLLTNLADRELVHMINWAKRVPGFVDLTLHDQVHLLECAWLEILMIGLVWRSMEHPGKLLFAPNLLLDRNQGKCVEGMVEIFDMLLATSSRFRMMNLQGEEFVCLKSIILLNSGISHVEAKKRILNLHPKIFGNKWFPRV
Excerpt: MIESs effect their regulation of cell proliferation, migration, cell-cell junction and matrix, and energy metabolism through a series of scaffold protein complexes. ER-α association with the plasma membrane is facilitated by palmitoylation at residue C447 in the LBD. […] To verify this, we measured the binding affinity of 3H-E2 with GST-ER-α-36 expressed and purified from E. coli. […] In contrast, 3H-E2 does bind to GST-ER-α-46, which has a full length ER-α-LBD.
Isolation of microsome and Drug competition assay: Cells were harvested and lysed in TE buffer (50 mM Tris (pH8.0), 5 mM EDTA, 2 mM PMSF and protease inhibitor cocktail (Sigma)) for 30 min with vortexing every 5 min. 80% glycerol in TE buffer was added to cell lysates to reach 20% and centrifuged at 800 g for 5 min. The supernatant was transferred to new tubes and total protein concentration was adjusted to 5 mg/ml. Drugs and ^3H-E2 were added to 1 ml protein solution and incubated at 4° C. for 2 hours. Microsome was precipitated at 25 krpm for 2 hours. Bound ^3H-E2 was measured using GM meter.

[13] = system: patients whose cancers were potentially caused by EGF/Her1; details: patients who failed to be inhibited by an EGF competitor; cited from earlier work
[14] = system: ERK phosphorylation in HepG2 cells; assay: phosphorylation of ERK in HepG2 cells; type: cell-based; details: non-monotonic dose response
T47D cells = assay: EGF-induced T47D cell growth; type: cell-based; details: 7.5 μM, 10 ng/ml EGF
[15] = system: integrin β1 in MDA-MB-231 cells; assay: integrin β1 cell surface distribution and expression in MDA-MB-231 cells; type: cell-based; details: 6 μM
Procedure: as §2, §3, §4

[16] = charcoal-stripped FBS in phenol red free DMEM
[17] = tamoxifen 4.5 μg/g body mass per day, 9 weeks
[18] = anordrin 0.45 μg/g in combination with tamoxifen 4.5 μg/g per day

O=C(c1ccc(OCCN2CCCCC2)cc1)c1c(-c2ccc(O)cc2)sc2cc(O)ccc12 [raloxifene]
expression of ApoD [1]: enhance expression of ApoD

C#C[C@@]1(O)C[C@@H]2CC[C@@H]3[C@H](CC[C@@]4(C)[C@H]3CC[C@@]4(O)C#C)[C@@]2(C)C1 [Anordiol, 2β,7α-diethyl-A-nor-5α-androstane-2α,17β-diol]
binding to estrogen-binding complexes 4S and 8S [2]: preferentially bind the 8S complex

CC/C(=C(\c1ccccc1)c1ccc(OCCN(C)C)cc1)c1ccccc1 [tamoxifen]
Bcl-2 protein expression ([3]; 7.5 μM, western blotting): inhibit Bcl-2 expression | Bcl-2 protein expression [3, 16]: Neither tamoxifen nor anordrin or analog thereof (such as anordrin) were found to affect Bcl-2 protein expression | mRNA level of BRCA1 [1]: significantly inhibited | transcription of COX7a mRNA [1]: significantly inhibited | expression of ApoD [1]: enhance expression of ApoD | indicators of NASH syndrome (normal mice; [17]): increased indicators of NASH syndrome | liver TG levels (normal mice; [17]): increased | body mass (normal mice; tamoxifen 4.5 μg/g body mass per day, 9 weeks, normal mice): increase in body mass | endometrial epithelial cell proliferation [4]: induce proliferation | MDA-MB-231 cell growth (MDA-MB-231 cells [5]): no effect | binding to estrogen-binding complexes 4S and 8S [2]: bind both estrogen-binding complexes | glucose concentration of media / glucose consumption (MCF-7 cells [6]; MCF-7 cells): inhibition

C#C[C@@]1(OC(=O)CC)C[C@@H]2CC[C@@H]3[C@H](CC[C@@]4(C)[C@H]3CC[C@]4(C#C)OC(=O)CC)[C@H]2C1 [dinordrin]
increase of Bcl-2 mRNA transcription [3]: 147.2%±22.73% | blocking of [H^3-E2] binding to GST-ER-α-LBD on beads [7]: 63.2±5.7%

C#C[C@@]1(OC(=O)CC)C[C@@H]2CC[C@@H]3[C@H](CC[C@@]4(C)[C@H]3CC[C@]4(C#C)OC(=O)CC)[C@@]2(C)C1 [anordrin, 2α,17α-diethynyl-A-nor-5α-androstane-2β,17β-diol dipropionate]
MDA-MB-231 cell migration in medium containing E2 (MDA-MB-231 cells [8]; 10 nM E2): significantly inhibited | MDA-MB-231 cell migration in medium containing EGF (MDA-MB-231 cells [8]; 10 ng/ml EGF): significantly inhibited | effect on the ability of tamoxifen to inhibit MCF-7 cell growth (MCF-7 cells [9]; 200 nM anordrin in the culture medium): did not affect | inhibition at 7.5 µM (MCF-7 cells [9]; Homo sapiens, MCF7, 7.5 μM): > 50% | increase of Bcl-2 mRNA transcription [3]: 3.18%±3.22% | Bcl-2 mRNA expression ([3]; 7.5 μM, data not shown): not affected | Bcl-2 protein expression ([3]; 7.5 μM, western blotting): not affected | Bcl-2 protein expression [3, 16]: Neither tamoxifen nor anordrin or analog thereof (such as anordrin) were found to affect Bcl-2 protein expression | doses inhibiting proliferation (Ishikawa cells): 2 to 8 µM | mRNA level of BRCA1 [1]: did not significantly affect | 2-NBDG uptake (MCF-7 cells [10]): enhanced | cellular ATP concentrations (MCF-7 cells [10]): enhanced | tamoxifen-induced NASH syndrome phenotype (normal mice; [18]): completely reversed | tamoxifen-induced body weight phenotype (normal mice; [18]): completely reversed | tamoxifen-induced liver TG phenotype (normal mice; [18]): completely reversed | increased serum TG levels induced by tamoxifen (normal mice; mice): reverse | increased serum viscosity induced by tamoxifen (normal mice; mice): reverse | tamoxifen-induced uterine and vaginal atrophy (normal mice; tamoxifen treated mice): decrease the extent | 3H-E2 binding to GPER1 fusion protein (GPER1): inhibits | whole blood glucose / glucose consumption (db/db mice; female db/db mice, 0.45 μg/g body mass daily, 4 weeks): improved glucose consumption | glucose consumption (db/db mice; male db/db mice, data not shown): no affect | doses inhibiting proliferation (Hec1A cells): 2 to 8 µM | concentration showing the greatest degree of inhibition of cell growth (HepG2 cells): around 7 μM | shape of dose response of cell growth inhibition (HepG2 cells): biphasic dose response | hypertrophy of endometrial epithelial cells [4]: causes hypertrophy | endometrial epithelial cell proliferation [4]: does not induce | MDA-MB-231 cell growth (MDA-MB-231 cells [5]): inhibits MDA-MB-231 cell growth significantly | 3H-E2 binding to ER-β fusion protein (ER-β): inhibits | inhibition of 3H-E2 binding to GST-ER-α-LBD ([7]; 50 nM compound, 0.5 nM 3H-E2, 2 μg GST-ER-α-LBD): could not inhibit | blocking of [H^3-E2] binding to GST-ER-α-LBD on beads [7]: no inhibition | expression level of integrin β1 [11]: did not affect | integrin β1 distribution to the plasma membrane ([11]; 16 hours): down-regulated | fat deposits in paraffin sections of liver [12]: smaller fat deposits | body mass [12]: remained unchanged | total cholesterol (TC) in liver [12]: decreased amounts | triglyceride (TG) in liver [12]: decreased amounts | bone marrow cells ([12]; ovariectomized mice): prevent decrease | serum Ca^2+ ([12]; ovariectomized mice): increased | serum Pi ([12]; ovariectomized mice): decreased | uterine atrophy ([12]; ovariectomized mice): prevent uterine atrophy | bone density ([12]; ovariectomized mice, micro-CT): increased | effect on 3H-E2 binding to ER-α-36 (ER-α-36): biphasic effect | effect on tamoxifen inhibition of glucose metabolism (MCF-7 cells [6]; 200 nM anordrin with 1 μM tamoxifen, MCF-7, 60 hours): reversed the inhibitory effect | pH of culture medium (MCF-7 cells [6]; MCF-7 cells): decreased pH | glucose concentration of media / glucose consumption (MCF-7 cells [6]; MCF-7 cells): lower | quality of life and lifespan of patients [13]: improve the quality of life and increase the lifespan | concentration of maximal phosphorylation of ERK [14]: 10 µM | EGF-induced cell growth (T47D cells): blocked the increase in cell growth | expression level of integrin β1 [15]: did not affect | integrin β1 distribution to the plasma membrane ([15]; 16 hours): down-regulated

CC(C)Oc1ccc2c(=O)c(-c3ccccc3)coc2c1 [ipriflavone]
body mass [12]: increased | total cholesterol (TC) in liver [12]: no change | triglyceride (TG) in liver [12]: no change

C[C@]12CC[C@@H]3c4ccc(O)cc4CC[C@H]3[C@@H]1CC[C@@H]2O [E2, 17-beta estradiol]
fat deposits in paraffin sections of liver [12]: smaller fat deposits | body mass [12]: remained unchanged | total cholesterol (TC) in liver [12]: decreased amounts | triglyceride (TG) in liver [12]: decreased amounts
